{"source": "patent US20230026277A1", "about": "“COMPOSITION FOR PREVENTION, ALLEVIATION, OR TREATMENT OF RESPIRATORY DISEASE” (MICROX CO., LTD., priority 2019, published 2023)", "format_in_all_cases": "in vivo", "key": {"[1]": {"tested_on": "NF-κB and TNF-α", "assay": "NF-κB (Western blot) and TNF-α (ELISA) in asthma-induced mice", "protocol": "(§1) Also, on days 21 and 28 from the experimental starting date, the mice were put into a plastic box (Plexiglas (Rohm & Haas, Philadelphia, Pa.) exposure chamber; 24.5 cm×40.5 cm×15.0 cm), and 1.5% ovalbumin was evaporated using an ultrasonic nebulizer (NE-U12; output 0.8 mL/min; Omron, Japan), and injected into the box for 30 minutes so that the mice inhaled the evaporated ovalbumin (secondary challenge).\nA level of cytokines in the bronchoalveolar lavage fluid obtained in Experimental Method 2 was measured using an ELISA kit. Here, ELISA kits specifically manufactured for TNF-α, IL-4, IL-5, and IL-13 were used.\nA tissue was extracted from each of the mice manufactured in Experimental Method 1, and finely ground to a cell level. Thereafter, the cells were lysed in a cell lysis buffer containing a protease inhibitor to obtain a cell lysate. The cell lysate was centrifuged to obtain protein. Then, an equivalent amount of the proteins obtained from the cells were loaded on an SDS-PAGE gel and electrophoresed. The proteins present in the electrophoresed gel were transferred to a PVDF membrane. The PVDF membrane was washed, and added to a blocking buffer in which 5% skim milk was included in a TBS-T buffer, and incubated at room temperature. Then, the PVDF membrane was incubated at room temperature with an antibody diluted 1:1,000 in a TBS-T buffer containing 3% BSA. Then, the PVDF membrane was washed with a TBS-T buffer, and incubated at room temperature for an hour with a dilute solution containing HRP-bound IgG. The PVDF membrane was washed three times with a TBS-T buffer, and visualized and quantified using an ECL Western blotting detection reagent.\nHere, antibodies specific to elastin, caspase-3, collagen, MKP-1, p-cPLA, p-p38, NF-κB(p65), CK2α, GAPDH, or β-actin were used in the Western blot.\n(§2) Specifically, the secondary challenge (ovalbumin injection) was performed according to the method described above in Experimental Method 1, and the lungs were extracted after an hour, and then measured according to the method described above in Experimental Method 7. The results are shown in A of FIG. 9. Also, the level of TNF-α corresponding to an NK-κB-dependent cytokine was measured by ELISA according to the method described above in Experimental Method 4. The results are shown in B of FIG. 9. […]\nas §2, with “The” for “Specifically, the”, “30 or 60 minutes,” for “an hour,”, “The results are shown in A of FIG. 9.” left out, “4.” for “4. The results are shown in B of FIG. 9.”"}, "[2]": {"tested_on": "elastin, collagen, and caspase-3 proteins", "assay": "Western blot of elastin, collagen and caspase-3 in chronic obstructive pulmonary disease-induced mice", "details": "COPD induced 30 or 60 days; oral 250 μg/kg/day for the last 15 or 30 days; FIGS. 17 and 18", "protocol": "(§3) Eight-week-old female […] mice (Orient Bio Korea Inc., Korea) having no certain pathogen were accommodated in an aseptic laminar-flow cabinet, and bred by supplying a standard solid feed ad libitum. When the following experiment was performed, the mice were made to correspond to 7- to 8-weeks old, and all laboratory animals were managed according to the protocol approved by the Institutional Animal Care and Use Committee of the Chonbuk National University Medical School.\nThen, the mixed solution was intranasally administered to the mice of Preparative Example 1 once a day for 30 days or 60 days from the experimental starting date. Here, a group to which only physiological saline was intranasally administered and a group to which a solution obtained by mixing 0.25 μg of LPS with 50 μL of a 10% DMSO solution was administered were used as the controls.\nA tissue was extracted from each of the mice manufactured in Experimental Method 1, and finely ground to a cell level. Thereafter, the cells were lysed in a cell lysis buffer containing a protease inhibitor to obtain a cell lysate. The cell lysate was centrifuged to obtain protein. Then, an equivalent amount of the proteins obtained from the cells were loaded on an SDS-PAGE gel and electrophoresed. […] The PVDF membrane was washed three times with a TBS-T buffer, and visualized and quantified using an ECL Western blotting detection reagent. […]"}, "[3]": {"tested_on": "neutrophils and eosinophils introduced into the airway", "assay": "Inflammatory cells (neutrophils and eosinophils) in bronchoalveolar lavage fluid, Diff-Quik staining, asthma-induced mice", "protocol": "as §3, §1\nAfter the mice were anesthetized, a thin tube was inserted into the airway, and a piston process was repeated using a syringe filled with 0.2 mL of physiological saline to obtain a bronchoalveolar lavage fluid. The bronchoalveolar lavage fluid obtained through this piston process was stored at −70° C. when it was not immediately used in the experiments.\n50 μL of the bronchoalveolar lavage fluid obtained in Experimental Method 2 was put on a slide used for the cytospin, and centrifuged for 30 minutes. Thereafter, Diff-Quik staining was performed, and inflammatory cells (neutrophils and eosinophils) were observed using a microscope.\nPreparation Example 3 (α,δ-NA-L-G) or α,δ N-acetyl-D-glutamine (α,δ-NA-D-G) was orally administered to the asthma-induced mice of Experimental Method 1 daily from the experimental starting date at a concentration of 50, 100, or 200 μg/kg/day, and the cell numbers of neutrophils and eosinophils introduced into the airway through the method of Experimental Method 3 were measured. The results are shown in A and B of FIG. 3. In this case, the cell numbers were measured at 10 hours (neutrophils) or 48 hours (eosinophils) after a secondary challenge."}}, "data": [{"smiles": "CC(=O)NC(=O)CC[C@H](NC(C)=O)C(=O)O", "note": "[Preparation Example 3, 2,5-diacetamido-5-oxopentanoic acid]", "values": [{"measurement": "effect for reducing the levels of NF-κB and TNF-α", "setting": "[1]; 400 μg/kg/day with siRNA specific to MKP-1, FIG. 9", "result": "not observed"}, {"measurement": "levels of NF-κB and TNF-α", "setting": "[1]; oral daily 400 μg/kg/day, an hour after secondary challenge, FIG. 9A and B", "result": "decreased"}, {"measurement": "levels of the elastin, collagen, and caspase-3 proteins", "setting": "[2]", "result": "decreased to that of the negative control (saline)"}, {"measurement": "inflow of the neutrophils and eosinophils into the airway", "setting": "[3]; asthma-induced mice, oral daily 50, 100 or 200 μg/kg/day, neutrophils 10 hours, eosinophils 48 hours after secondary challenge, FIG. 3", "result": "very effectively inhibited"}, {"measurement": "inhibition of neutrophils, compared to the eosinophils", "setting": "[3]; asthma-induced mice, oral daily, from a concentration of 50 μg/kg/day, FIG. 3A", "result": "very effectively inhibited the neutrophils"}, {"measurement": "cell numbers of the neutrophils and eosinophils", "setting": "[3]; experiment [5-6], together with siRNA specific to MKP-1, FIG. 12", "result": "increased"}, {"measurement": "cell numbers of neutrophils and eosinophils", "setting": "[3]; experiment [5-6], without MKP-1 siRNA, FIG. 12", "result": "decreased"}]}]}
